According to paper PMC6746850, “Identification and Molecular Characterization of Superoxide Dismutases Isolated From A Scuticociliate Parasite: Physiological Role in Oxidative Stress” (Scientific Reports, 2019):

What was measured:
Pd-Fe-SOD (FSD) = molecular target: T1, Pd-Fe-SOD (FSD) (Philasterides dicentrarchi, UniProt A0A481XSU7); test: SOD activity staining (NBT) in native PAGE; type: biochemical; settings: 100 μM inhibitor; anion-exchange fraction P2 (methods also describe 30 min treatment of live ciliates before lysis)
T1 construct: native enzyme, 60-65 kDa activity band in anion-exchange fraction P2 on native PAGE; homodimer
T1 sequence (A0A481XSU7 22-249): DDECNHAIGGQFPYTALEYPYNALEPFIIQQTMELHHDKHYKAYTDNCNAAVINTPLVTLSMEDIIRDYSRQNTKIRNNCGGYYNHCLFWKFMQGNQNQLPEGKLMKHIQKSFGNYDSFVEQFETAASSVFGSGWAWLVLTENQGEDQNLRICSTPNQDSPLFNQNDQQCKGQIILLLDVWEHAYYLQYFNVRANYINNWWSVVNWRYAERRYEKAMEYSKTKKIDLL

Pd-Mn-SOD (MSD) = molecular target: T2, Pd-Mn-SOD (MSD) (Philasterides dicentrarchi, UniProt A0A410JA19); test: SOD activity staining (NBT) in native PAGE; type: biochemical; settings: 100 μM inhibitor; anion-exchange fraction P2 (methods also describe 30 min treatment of live ciliates before lysis)
T2 construct: native enzyme, about 50 kDa activity band in anion-exchange fraction P2 on native PAGE; homodimer
T2 sequence (A0A410JA19 13-220): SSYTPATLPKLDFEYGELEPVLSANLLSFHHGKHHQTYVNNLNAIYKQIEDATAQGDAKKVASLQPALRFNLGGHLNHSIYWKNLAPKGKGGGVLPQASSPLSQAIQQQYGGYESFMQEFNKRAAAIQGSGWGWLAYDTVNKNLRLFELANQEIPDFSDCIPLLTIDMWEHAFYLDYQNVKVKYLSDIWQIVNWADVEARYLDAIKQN

Oc1ccc(/C=C/c2cc(O)cc(O)c2)cc1 [trans-resveratrol]
complete inhibition at 100 μM (Pd-Fe-SOD (FSD)): completely inhibited the activity of the Pd-Fe-SOD isoenzyme | partial inhibition at 100 μM (Pd-Mn-SOD (MSD)): RESV partly inhibited the activity of the Pd-Mn-SOD isoenzyme
